# From ChEMBL document CHEMBL1135956 (Bioorg Med Chem Lett, 2002)
# Experiments:
# Glucagon receptor [1] = biological target: T1, Glucagon receptor (Homo sapiens, UniProt P47871); assay: Binding affinity of second diastereomer (D2) against human glucagon receptor was determined
# Glucagon receptor [2] = biological target: T1, Glucagon receptor; assay: Binding affinity of first enantiomer (E1) against human glucagon receptor was determined
# Glucagon receptor [3] = biological target: T1, Glucagon receptor; assay: Binding affinity of second enantiomer (E2) against human glucagon receptor was determined
# Glucagon receptor [4] = biological target: T1, Glucagon receptor; assay: Binding affinity of first diastereomer (D1) against human glucagon receptor was determined
# [5] = Compound was evaluated for the functional activity by the inhibition of cAMP production
# T1 sequence (P47871 whole entry): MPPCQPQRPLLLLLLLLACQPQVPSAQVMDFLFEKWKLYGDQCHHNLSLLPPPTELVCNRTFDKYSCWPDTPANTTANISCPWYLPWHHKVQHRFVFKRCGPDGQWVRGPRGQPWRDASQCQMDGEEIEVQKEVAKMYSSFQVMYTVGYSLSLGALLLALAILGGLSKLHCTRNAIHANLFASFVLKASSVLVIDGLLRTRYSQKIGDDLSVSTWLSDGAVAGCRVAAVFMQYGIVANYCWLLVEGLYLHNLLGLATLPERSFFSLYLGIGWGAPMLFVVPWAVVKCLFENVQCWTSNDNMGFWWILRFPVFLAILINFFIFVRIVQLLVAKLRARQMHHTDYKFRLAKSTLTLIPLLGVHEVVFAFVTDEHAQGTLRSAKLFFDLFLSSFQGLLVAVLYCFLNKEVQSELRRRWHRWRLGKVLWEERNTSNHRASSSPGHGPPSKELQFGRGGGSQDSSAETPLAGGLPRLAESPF
SMILES,IC50 (Glucagon receptor [1]) [nM],IC50 (Glucagon receptor [2]) [nM],IC50 (Glucagon receptor [3]) [nM],IC50 (Glucagon receptor [4]) [nM],IC50 [5] [nM]
CCc1c(C(C)C)nc(C(C)C)c(C(C)O)c1-c1ccc(F)cc1O (centres undefined),2000,5000,16,20,
CCCc1c(C(C)C)nc(C(C)C)c(C(C)O)c1-c1ccccc1O (centres undefined),1100,190,25,40,
CCCCCc1c(C(C)C)nc(C(C)C)c(C(C)O)c1-c1ccc(F)cc1O (centres undefined),2200,8000,12,30,

# Now those with a lower IC50 (Glucagon receptor [1]), led by results:
IC50 (Glucagon receptor [1]) [nM],IC50 (Glucagon receptor [2]) [nM],IC50 (Glucagon receptor [3]) [nM],IC50 (Glucagon receptor [4]) [nM],IC50 [5] [nM],SMILES
1000,,,28,,CCCCc1c(C(C)C)nc(C(C)C)c(C(C)O)c1-c1ccc(F)cc1O (centres undefined)
1000,8000,10,18,6.5,CCCc1c(C(C)C)nc(C(C)C)c(C(C)O)c1-c1ccc(F)cc1O (centres undefined)
